pIC50: −log10 of the molar value.
How the values were obtained:
[1] = 12-lead ECG, baseline-corrected QTcF; type: in vivo, human; details: for Maximum change from baseline in QTcF interval >30-≤60 msec / Maximum change from baseline in QTcF interval >60 msec / Maximum change from baseline in QTcF interval ≤30 msec: n = 6
Experimental: Participants were monitored for adverse events (AEs) throughout the study. Clinical laboratory tests, vital sign measurements, 12-lead ECGs, and physical examinations were performed at selected times throughout the dosing interval. Safety data was recorded in the participants’ medical records, and assessments were performed for emergent AEs or serious AEs (SAEs). For all AEs, causal relationship to the study drug was determined by an investigator. QT signals obtained from 12-lead ECGs were corrected by heart rate using Fridericia’s formula (QTcF). Baseline-corrected QTcF (∆QTcF) were evaluated to determine QT elongation.

[2] = Stability of BMS-986142 in human EDTA plasma and processed samples (bioanalytical validation); type: physicochemical
Experimental: Method validation was carried out according to the Bristol-Myers Squibb Standard Operating Procedures (SOPs) for chromatographic method validation which conforms to the U.S. FDA’s Good Laboratory Practice (GLP) regulations (21 CFR part 58). The validation experiments included but were not limited to the determination of the lower limit of quantification (LLOQ), specificity, accuracy and precision, recovery, and analyte stability under the expected conditions of sample transfer, sample storage, and sample preparation. The LLOQ of the assay was determined to be 1 ng/mL using six different lots of plasma. No interference from the endogenous components and the internal standard was observed.
The accuracy and precision data for BMS-986142, based on the maximum value from all six QC levels, obtained using one-way ANOVA in Watson are listed in Table 1. The recovery of the analyte from human plasma during extraction was determined at 3 ng/mL and 800 ng/mL for BMS-986142, at 3 ng/mL, 30 ng/mL and 750 ng/mL for methotrexate and 7-hydroxymethotrexate, by comparing the response ratios in human plasma samples spiked with the analyte prior to extraction with those spiked post-extraction. The recovery for BMS-986142 is 89-90%. The recoveries for methotrexate and 7-hydroxymethotrexate are 88-94% and 83-88%, respectively. The room temperature, freeze-thaw, and frozen storage stability of BMS-986142 were evaluated in triplicate or quadruplicate using Low QC, High QC, and Dilution QC. The reinjection integrity was assessed by re-injecting an entire run. The deviations of the mean predicted concentrations of the test samples from the nominal concentrations were used as an indicator of the stability of the analyte.

CD69 expression = test system: CD69 expression; design: method as in PMID 27583770; details: in vitro; read-out: IC50 of CD69 inhibition derived from in vitro evaluation; cited from earlier work
[3] = rats, 1-month GLP toxicology study; cited from earlier work
[4] = Safety (adverse events), Study 2 MTX-DDI in healthy male participants
Experimental: This portion of the study was designed to assess the effect of BMS-986142 on the PK of MTX since MTX is used as a background therapy in RA patients and all patients will receive MTX when the phase 2 study of BMS-986142 is conducted. Eligible participants were confined to the clinical facility for the duration of treatment (15 days). Healthy participants were administered a single oral dose of 7.5 mg MTX on day 1. On day 2, participants received leucovorin (a single oral dose of 15 mg) as a preventive measure for MTX toxicity. After a washout period (days 2–5), BMS-986142 was administered on days 6–10 in 350-mg QD doses. A concomitant dose of MTX (7.5 mg) was administered on day 8, followed by leucovorin (15 mg) on day 9 (Online Resource 2). BMS-986142 was administered with 240 mL of water, and a minimum amount of additional water was permitted to allow dosing of all medications. Only healthy male participants (ages ≥18 to ≤50 years) were eligible for the MTX-DDI assessment in study 2. Other key inclusion and exclusion criteria were identical to those in study 1.
Participants were monitored for adverse events (AEs) throughout the study. Clinical laboratory tests, vital sign measurements, 12-lead ECGs, and physical examinations were performed at selected times throughout the dosing interval. Safety data was recorded in the participants’ medical records, and assessments were performed for emergent AEs or serious AEs (SAEs). For all AEs, causal relationship to the study drug was determined by an investigator.

[5] = 19.6 hours at RT in Plasma, Dilution QC 10000.00
[6] = 19.6 hours at RT in Plasma, High QC 800.00
[7] = 19.6 hours at RT in Plasma, Low QC 3.00
[8] = 96 h Processed sample stability, Dilution QC 10000.00
[9] = 96 h Processed sample stability, High QC 800.00
[10] = 96 h Processed sample stability, Low QC 3.00
[11] = 7 days at 5 °C Re-injection integrity, Dilution QC 10000.00
[12] = 7 days at 5 °C Re-injection integrity, High QC 800.00
[13] = 7 days at 5 °C Re-injection integrity, Low QC 3.00
[14] = 327 day at -20 °C in Plasma, Dilution QC 10000.00
[15] = 327 day at -20 °C in Plasma, High QC 800.00
[16] = 327 day at -20 °C in Plasma, Low QC 3.00
[17] = After 4 Freeze-Thaw Cycle in Plasma, Dilution QC 10000.00
[18] = After 4 Freeze-Thaw Cycle in Plasma, High QC 800.00
[19] = After 4 Freeze-Thaw Cycle in Plasma, Low QC 3.00
[20] = BMS-986142 350 mg QD (Days 6 and 7), n = 12
[21] = BMS-986142 350 mg QD (Days 8 to 10) + MTX 7.5 mg (Day 8) + leucovorin 15 mg (Day 9), n = 12

SMILES: Cc1c(-c2c(F)cc(C(N)=O)c3[nH]c4c(c23)CC[C@H](C(C)(C)O)C4)cccc1-n1c(=O)c2cccc(F)c2n(C)c1=O [BMS-986142, 6-fluoro-5-(R)-(3-(S)-(8-fluoro-1-methyl-2,4-dioxo-1,2-dihydroquinazolin-3(4H)-yl)-2-methylphenyl)-2-(S)-(2-hydroxypropan-2-yl)-2,3,4,9-tetrahydro-1H-carbazole-8-carboxamide]
- Maximum change from baseline in QTcF interval >30-≤60 msec ([1]; MAD 25 mg): 0 N (%)
- Maximum change from baseline in QTcF interval >60 msec ([1]; MAD 25 mg): 0 N (%)
- Maximum change from baseline in QTcF interval ≤30 msec ([1]; MAD 25 mg): 6 (100) N (%)
- Maximum change from baseline in QTcF interval >30-≤60 msec ([1]; MAD 75 mg): 0 N (%)
- Maximum change from baseline in QTcF interval >60 msec ([1]; MAD 75 mg): 0 N (%)
- Maximum change from baseline in QTcF interval ≤30 msec ([1]; MAD 75 mg): 6 (100) N (%)
- Maximum change from baseline in QTcF interval >30-≤60 msec ([1]; MAD 200 mg): 0 N (%)
- Maximum change from baseline in QTcF interval >60 msec ([1]; MAD 200 mg): 0 N (%)
- Maximum change from baseline in QTcF interval ≤30 msec ([1]; MAD 200 mg): 6 (100) N (%)
- Maximum change from baseline in QTcF interval >30-≤60 msec ([1]; MAD 350 mg): 0 N (%)
- Maximum change from baseline in QTcF interval >60 msec ([1]; MAD 350 mg): 0 N (%)
- Maximum change from baseline in QTcF interval ≤30 msec ([1]; MAD 350 mg): 6 (100) N (%)
- Maximum change from baseline in QTcF interval >30-≤60 msec ([1]; SAD 5 mg): 0 N (%)
- Maximum change from baseline in QTcF interval >60 msec ([1]; SAD 5 mg): 0 N (%)
- Maximum change from baseline in QTcF interval ≤30 msec ([1]; SAD 5 mg): 6 (100) N (%)
- Maximum change from baseline in QTcF interval >30-≤60 msec ([1]; SAD 15 mg): 0 N (%)
- Maximum change from baseline in QTcF interval >60 msec ([1]; SAD 15 mg): 0 N (%)
- Maximum change from baseline in QTcF interval ≤30 msec ([1]; SAD 15 mg): 6 (100) N (%)
- Maximum change from baseline in QTcF interval >30-≤60 msec ([1]; SAD 50 mg): 0 N (%)
- Maximum change from baseline in QTcF interval >60 msec ([1]; SAD 50 mg): 0 N (%)
- Maximum change from baseline in QTcF interval ≤30 msec ([1]; SAD 50 mg): 6 (100) N (%)
- Maximum change from baseline in QTcF interval >30-≤60 msec ([1]; SAD 100 mg): 0 N (%)
- Maximum change from baseline in QTcF interval >60 msec ([1]; SAD 100 mg): 0 N (%)
- Maximum change from baseline in QTcF interval ≤30 msec ([1]; SAD 100 mg): 6 (100) N (%)
- Maximum change from baseline in QTcF interval >30-≤60 msec ([1]; SAD 300 mg): 0 N (%)
- Maximum change from baseline in QTcF interval >60 msec ([1]; SAD 300 mg): 0 N (%)
- Maximum change from baseline in QTcF interval ≤30 msec ([1]; SAD 300 mg): 6 (100) N (%)
- Maximum change from baseline in QTcF interval >30-≤60 msec ([1]; SAD 900 mg): 0 N (%)
- Maximum change from baseline in QTcF interval >60 msec ([1]; SAD 900 mg): 0 N (%)
- Maximum change from baseline in QTcF interval ≤30 msec ([1]; SAD 900 mg): 6 (100) N (%)
- Increase from baseline in maximum post-dose QTcF ([1]; SAD and MAD): No participants showed greater than 30 ms increase from baseline
- Stability, %Dev [2, 5]: 3.1%
- Stability, Mean Conc. [2, 5]: 10314.35 ng/mL
- Stability, %Dev [2, 6]: 2.0%
- Stability, Mean Conc. [2, 6]: 816.24 ng/mL
- Stability, %Dev [2, 7]: 8.3%
- Stability, Mean Conc. [2, 7]: 3.25 ng/mL
- Stability, %Dev [2, 8]: -3.3%
- Stability, Mean Conc. [2, 8]: 9666.77 ng/mL
- Stability, %Dev [2, 9]: 1.7%
- Stability, Mean Conc. [2, 9]: 813.52 ng/mL
- Stability, %Dev [2, 10]: 4.0%
- Stability, Mean Conc. [2, 10]: 3.12 ng/mL
- Stability, %Dev [2, 11]: 9.9%
- Stability, Mean Conc. [2, 11]: 10986.50 ng/mL
- Stability, %Dev [2, 12]: 4.7%
- Stability, Mean Conc. [2, 12]: 837.90 ng/mL
- Stability, %Dev [2, 13]: 2.7%
- Stability, Mean Conc. [2, 13]: 3.08 ng/mL
- Stability, %Dev [2, 14]: -4.2%
- Stability, Mean Conc. [2, 14]: 9578.40 ng/mL
- Stability, %Dev [2, 15]: 1.9%
- Stability, Mean Conc. [2, 15]: 815.36 ng/mL
- Stability, %Dev [2, 16]: 5.0%
- Stability, Mean Conc. [2, 16]: 3.15 ng/mL
- Stability, %Dev [2, 17]: -7.6%
- Stability, Mean Conc. [2, 17]: 9241.55 ng/mL
- Stability, %Dev [2, 18]: -5.9%
- Stability, Mean Conc. [2, 18]: 752.66 ng/mL
- Stability, %Dev [2, 19]: -6.3%
- Stability, Mean Conc. [2, 19]: 2.81 ng/mL
- pIC50 (CD69 expression): 7.05
- Steady-state exposure (AUC) at NOAEL [3]: 22,920 ng h/mL
- AE SOC: Gastrointestinal Disorders [4, 20]: 0 n (%)
- AE SOC: General disorders and administration site conditions [4, 20]: 0 n (%)
- AE SOC: Infections and infestations [4, 20]: 0 n (%)
- AE SOC: Injury, poisoning and procedural complications [4, 20]: 0 n (%)
- AE SOC: Nervous system disorders [4, 20]: 1 (8.3) n (%)
- AE SOC: Psychiatric disorders [4, 20]: 1 (8.3) n (%)
- AE: Anxiety [4, 20]: 0 n (%)
- AE: Arthropod Bite [4, 20]: 0 n (%)
- AE: Asthenia [4, 20]: 0 n (%)
- AE: Dizziness [4, 20]: 0 n (%)
- AE: Fatigue [4, 20]: 0 n (%)
- AE: Headache [4, 20]: 1 (8.3) n (%)
- AE: Nausea [4, 20]: 0 n (%)
- AE: Sleep Disorder [4, 20]: 1 (8.3) n (%)
- AE: Tremor [4, 20]: 0 n (%)
- AE: Viral Infection [4, 20]: 0 n (%)
- Total participants with an event [4, 20]: 2 (16.7) n (%)
- AE SOC: Gastrointestinal Disorders [4, 21]: 2 (16.7) n (%)
- AE SOC: General disorders and administration site conditions [4, 21]: 1 (8.3) n (%)
- AE SOC: Infections and infestations [4, 21]: 1 (8.3) n (%)
- AE SOC: Injury, poisoning and procedural complications [4, 21]: 1 (8.3) n (%)
- AE SOC: Nervous system disorders [4, 21]: 2 (16.7) n (%)
- AE SOC: Psychiatric disorders [4, 21]: 1 (8.3) n (%)
- AE: Anxiety [4, 21]: 1 (8.3) n (%)
- AE: Arthropod Bite [4, 21]: 1 (8.3) n (%)
- AE: Asthenia [4, 21]: 0 n (%)
- AE: Dizziness [4, 21]: 2 (16.7) n (%)
- AE: Fatigue [4, 21]: 1 (8.3) n (%)
- AE: Headache [4, 21]: 1 (8.3) n (%)
- AE: Nausea [4, 21]: 2 (16.7) n (%)
- AE: Sleep Disorder [4, 21]: 0 n (%)
- AE: Tremor [4, 21]: 0 n (%)
- AE: Viral Infection [4, 21]: 1 (8.3) n (%)
- Total participants with an event [4, 21]: 4 (33.3) n (%)
- Number of AEs reported ([4]; Study 2, BMS-986142 on days 6 and 7): 2 AEs
- Number of AEs reported ([4]; Study 2, concomitant MTX and BMS-986142 (days 8–10)): 9 AEs
- AE: Cough ([4]; Study 2, n = 12): 0 n (%)
- AE: Diarrhea ([4]; Study 2, n = 12): 0 n (%)
- AE: Dizziness ([4]; Study 2, n = 12): 2 (16.7) n (%)
- AE: Headache/tension headache ([4]; Study 2, n = 12): 1 (8.3) n (%)
- AE: Nausea ([4]; Study 2, n = 12): 2 (16.7) n (%)
- AE: Thermal burns ([4]; Study 2, n = 12): 0 n (%)
- AE: Upper respiratory tract infection ([4]; Study 2, n = 12): 0 n (%)
- Subjects with AEs ([4]; Study 2, n = 12): 4 (33.3) n (%)
